Results as given in EP1231468A1, “METHOD FOR DETECTING EXOGENOUS ENDOCRINE DISRUPTING CHEMICAL AND DETECTION APPARATUS” (Central Research Institute of Electric Power Industry, priority 1999, dated 2001).

Biological target: T1, human estrogen receptor α (Homo sapiens, UniProt P03372)
T1 sequence (P03372 1-595): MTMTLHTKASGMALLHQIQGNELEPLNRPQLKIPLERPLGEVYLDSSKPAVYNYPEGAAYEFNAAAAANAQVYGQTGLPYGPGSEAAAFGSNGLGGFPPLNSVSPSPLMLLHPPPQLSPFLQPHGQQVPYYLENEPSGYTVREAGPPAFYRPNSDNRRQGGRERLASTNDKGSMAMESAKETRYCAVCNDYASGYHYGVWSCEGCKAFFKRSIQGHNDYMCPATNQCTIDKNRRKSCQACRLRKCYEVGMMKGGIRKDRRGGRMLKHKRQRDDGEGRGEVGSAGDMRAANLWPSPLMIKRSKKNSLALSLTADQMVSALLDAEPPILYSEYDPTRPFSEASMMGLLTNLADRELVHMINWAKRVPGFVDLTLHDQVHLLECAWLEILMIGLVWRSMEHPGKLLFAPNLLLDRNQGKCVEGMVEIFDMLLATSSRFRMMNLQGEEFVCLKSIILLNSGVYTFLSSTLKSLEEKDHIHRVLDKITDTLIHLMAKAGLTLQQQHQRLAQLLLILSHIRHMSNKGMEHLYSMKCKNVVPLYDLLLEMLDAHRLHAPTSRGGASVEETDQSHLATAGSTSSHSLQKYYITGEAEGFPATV
Assay: Competitive bonding of E2-BSA-CY5 and test substance to immobilized estrogen receptor, flow-type fluorescence detection
Assay type: binding
Conditions: for range of concentration in which reduction in fluorescence intensity can be confirmed / substance can be detected: bonding inhibition ratio against concentration, Fig. 4, Fig. 6; for inhibition of bonding of E2-BSA-CY5 to the receptor (reduction in fluorescence intensity): various concentrations added to E2-BSA-CY5 of fixed concentration, Fig. 3, Fig. 5
Method: As an estrogen receptor, a human estrogen receptor α [manufactured by PanVela Corporation, Drive Madison, Wisconsin, USA] was used.
Immobilization of the estrogen receptor to a carrier (beads) was carried out by natural adsorption. […] 0.2 g of the beads was put in a small test tube, and suspended in 1 ml of a buffer for bonding (50 mM tris HCl, 500 mM KCl, 2mM DDT, 1mM EDTA, 10% glycerol, pH 7.8). 70 pmol of the estrogen receptor was put in this suspension, and blended for 30 minutes at a room temperature. Thereafter, 100 µl of bovine serum albumin was added so as to obtain the final concentration of 1 mg/ml. After addition, it is further blended for 30 minutes at a room temperature. Subsequently, the particles were washed by using the same buffer, again suspended in 30 ml of the same buffer, and used for measurement. It is to be noted that, as beads for comparison in which the estrogen receptor is not immobilized, those obtained by adding only bovine serum albumin to the beads were prepared by the similar operation.
In order to provide this fluorescence dye, a CY5 labeling kit [manufactured by Amersham Life Science, Arlington Heights, Illinois, USA] was used. The 17β-estradiol-bovine serum albumin having the fluorescence dye given thereto and the free fluorescence dye were partitioned by the gel filtration chromatography.
For measurement of a fluorescence intensity, a detector having a flow type fluorophotometer [manufactured by Sapidyne Instrument Inc., Boise, Idaho, USA] incorporated therein was used. […] The fluorescence intensity can be measured in units of an electrical signal by an excitation light source 3 and the detector 4 arranged with a glass cell 1 having a diameter of 1.5 mm and a length of 30 mm therebetween. The immobilized estrogen receptor 2 having the shape of beads is filled in the glass cell 1 by being banked up and laminated by a screen S consisting of 50 µm nylon mesh set in the glass cell 1. […] The material remaining between beads, which is not bonded to the receptor 2, is discharged from the direction indicated by an arrow b by leading only the buffer at a speed of 1.5 ml/min. Thereafter, the remaining fluorescence intensity was evaluated as a quantity of bonding. Specifically, the buffer for bonding was diluted with E2-BSA-CY5 so as to obtain approximately 400 ng/ml. It is to be noted that this concentration was appropriately adjusted in accordance with a ratio of provision of the fluorescence in E2-BSA-CY5. The same quantity of the buffer for bonding in which a natural hormone or a chemical substance with the already-known concentration was dissolved was added to the diluted solution and left to take its own course at a room temperature for 30 minutes. Incidentally, in case of a water-insoluble material, it was completely dissolved in dimethyl sulfoxide and then appropriately diluted. Further, it was left to stand and used for measurement.

Molecule	range of concentration in which reduction in fluorescence intensity can be confirmed / substance can be detected	inhibition of bonding of E2-BSA-CY5 to the receptor (reduction in fluorescence intensity)
CC(C)(c1ccc(O)cc1)c1ccc(O)cc1 [bisphenol A]	10^-8 to 10^-6 M	the fluorescence intensity was lowered
nonylphenol	10^-9 to 10^-5 M	the fluorescence intensity was lowered
C[C@]12CC[C@H]3[C@@H](CCC4=CC(=O)CC[C@@]43C)[C@@H]1CC[C@@H]2O [testosterone, reference compound]		did not inhibit
